Reference: patent publication US9139585B2 (Merck Sharp & Dohme Corp., priority 2011, dated 2015)
Read-outs that look alike come from different tables or passages of the source.

How the values were obtained:
[1] = target: hROMK (hKir1.1) (Homo sapiens (Human), UniProt P48048); assay: Thallium Flux Assay (ROMK channel functional thallium flux, FLIPR-Tetra); format: cell-based
Method: Another ROMK functional assay makes use of the ability of thallium to permeate through open ROMK channels and increase the fluorescence of a dye previously loaded into the cells. Under control conditions, cells loaded with dye and exposed to thallium-containing medium display a time-dependent increase in fluorescence, the rate of which depends on number of functional channels. When cells are incubated in the presence of a channel inhibitor, the increase in fluorescence is attenuated in a concentration-dependent manner, and IC50 values of inhibition by compounds can be accurately determined. This assay has been established with cell lines expressing either human, or rat ROMK channels, and operates in 384-well format.
HEK293 cells stably expressing hROMK (hKir1.1) were grown at 37° C. in a 10% CO2 humidified incubator in complete growth media: Dulbecco's Modified Eagle Medium supplemented with non-essential amino acids, Penicillin/Streptomycin/Glutamine, G418 and FBS. At >80% confluency, the media was aspirated from the flask and the sample was rinsed with 10 ml Calcium/Magnesium-free PBS. […] To dislodge the cell, the side of the flask was gently banged with a hand. The cells were triturated completely and then transferred to 25 ml complete media. The sample was then centrifuged at 1,500 rpm for 6 minutes, followed by resuspension in complete growth media and then cell concentration was determined. […] Under ideal growth conditions and appropriate tissue culture practices, this cell line is stable for 40-45 passages.
FluxOR Kit Components (Invitrogen F10017)
• FluxOR™ Reagent (Component A) • FluxOR™ Assay Buffer (Component B)—10× Concentrate • PowerLoad™ Concentrate (Component C)—100× Concentrate • Probenecid (Component D)—Lyophilized sample is kept at −20° C. Water soluble, 100× after solubilization in 1 ml water. […] Store at 4° C. • Thallium sulfate (Tl2SO4) Concentrate (Component G)—50 mM in water. Store at 4° C. • DMSO (dimethyl sulfoxide, Component H)—1 ml (100%) Reagent Preparation— FluxOR Working Solutions • 1000× FluxOR™ Reagent: Reconstitute a vial of component A in 100 μl DMSO; Mix well; Store 10 μl aliquots at −20° C. • 1× FluxOR™ Assay Buffer: Dilute Component B 10-fold with water; Adjust pH to 7.4 with Hepes/NaOH; Filter and store at 4° C. • Probenecid/Assay Buffer: 100 ml of 1× FluxOR™ Assay Buffer; 1 ml of reconstituted component D; Store at 4° C. • Loading Buffer (per microplate): 10 μl 1000× FluxOR™ Reagent; 100 μl component C; 10 ml Probenecid/Assay Buffer • Compound Buffer (per microplate): 20 ml Probenecid/Assay Buffer; 0.3 mM ouabain (10 mM ouabain in water can be stored in amber bottle/aluminum foil at room temperature);
Test compound • 1× FluxOR™ Chloride-Free Buffer: Prepare 1× working solution in water. Can be stored at room temperature • Stimulant Buffer (prepared at 5× final concentration in 1× FluxOR™ Chloride-Free Buffer): 7.5 mM Thallium sulfate and 0.75 mM Potassium sulfate (to give a final assay concentration of 3 mM Thallium/0.3 mM Potassium). Store at 4° C. when not in use. If kept sterile, this solution is good for months. Assay Protocol—
The ROMK channel functional thallium flux assay is performed in 384 wells, using the FLIPR-Tetra instrument. HEK-hKir1.1 cells are seeded in Poly-D-Lysine microplates and kept in a 37° C.-10% CO2 incubator overnight. On the day of the experiment, the growth media is replaced with the FluxOR™ reagent loading buffer and incubated, protected from light, at ambient temperature (23-25° C.) for 90 min. The loading buffer is replaced with assay buffer±test compound followed by 30 min incubation at ambient temperature, where the Thallium/Potassium stimulant is added to the microplate.
• 1. Seed HEK-hKir1.1 cells (50 μl at 20,000 cells/well) in 384-well PDL coated Microplates • 2. Allow cells to adhere overnight in humidified 37° C./10% CO2 incubator • 3. Completely remove cell growth media from microplate and replace with 25 μl loading buffer • 4.

[2] = target: Kir1.1 (ROMK1) (Homo sapiens (Human), UniProt P48048); assay: Electrophysiology Assay (whole cell voltage clamp, IonWorks Quattro); format: cell-based; conditions: read-out: EP Assay IC50
From the text: Several assays may be used to measure functional inhibition of the ROMK channel by compounds of the instant invention. One assay that can be used is an electrophysiology assay that measures the electrical current that is generated as potassium permeates through the channel.
Block of Kir1.1 (ROMK1) currents was examined by whole cell voltage clamp (Hamill et. al. Pfluegers Archives 391:85-100 (1981)) using the IonWorks® Quattro automated electrophysiology platform (Molecular Devices, Sunnyvale, Calif.). Chinese hamster ovary cells stably expressing Kir1.1 channels were maintained in T-75 flasks in cell culture media in a humidified 10% CO2 incubator at 37° C. Prior to an experiment, Kir1.1 expression was induced by overnight incubation with 1 mM sodium butyrate. On the day of the experiment, cells were dissociated with 2.5 ml of Versene™ (Invitrogen 15040-066) for approximately 6 minutes at 37° C. and suspended in 10 ml of bath solution containing (in mM): 150 NaCl, 10 KCl, 2.7 CaCl2, 0.5 MgCl2, 5 HEPES, pH 7.4. After centrifugation, the cell pellet was resuspended in approximately 4.0 ml of bath solution and placed in the IonWorks® instrument. The intracellular solution consisted of (in mM): 80 K gluconate, 40 KCl, 20 KF, 3.2 MgCl2, 3 EGTA, 5 Hepes, pH 7.4. Electrical access to the cytoplasm was achieved by perforation in 0.13 mg/ml amphotericin B for 4 minutes. Amphotericin B (Sigma A-4888) was prepared as a 40 mg/ml solution in DMSO.
Voltage protocols and current recordings were performed using the IonWorks® HT software/hardware system. Currents were sampled at 1 kHz. No correction for liquid junction potentials was used. The test pulse, consisting of a 100 ms step to 0 mV from a holding potential of −70 mV, followed by a 100 ms voltage ramp from −70 mV to +70 mV, was applied before and after a 6 minutes compound incubation period. Test compounds were prepared by diluting DMSO stock solutions into the bath solution at 3× the final concentration and placed in the instrument in 96-well polypropylene plates. Current amplitudes were measured using the IonWorks® software. To assess compound potency, the fractional block during the voltage step to 0 mV was calculated in Microsoft® Excel (Microsoft, Redmond, Calif.), and dose-response curves were fitted with Igor Pro 4.0 (WaveMetrics, Lake Oswego, Oreg.).

[3] = HEK293 cells stably expressing hROMK (hKir1.1), read-out: Thallium Flux Assay IC50
[4] = Chinese hamster ovary cells stably expressing Kir1.1, block during voltage step to 0 mV

Chain of Kir1.1 (ROMK1) (P48048 whole entry, species assumed): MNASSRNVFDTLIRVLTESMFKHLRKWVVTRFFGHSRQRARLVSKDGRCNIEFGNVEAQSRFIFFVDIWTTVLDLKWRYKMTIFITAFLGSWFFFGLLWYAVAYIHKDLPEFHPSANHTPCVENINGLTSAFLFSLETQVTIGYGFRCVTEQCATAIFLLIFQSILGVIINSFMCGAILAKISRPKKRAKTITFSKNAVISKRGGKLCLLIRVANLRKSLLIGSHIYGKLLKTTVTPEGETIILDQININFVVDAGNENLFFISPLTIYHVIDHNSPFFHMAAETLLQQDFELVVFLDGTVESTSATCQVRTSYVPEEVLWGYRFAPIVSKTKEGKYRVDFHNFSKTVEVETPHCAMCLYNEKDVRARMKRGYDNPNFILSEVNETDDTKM
Chain of hROMK (hKir1.1) (P48048 whole entry): as the sequence (P48048 whole entry, species assumed) above

Row | SMILES | IC50 ([1]; Thallium Flux Assay IC50) [nM] | IC50 [2] [nM] | IC50 [1, 3] [nM] | IC50 [2, 4] [nM]
1 | Cc1c([C@@H](O)CN2C3COCC2CN(CCc2ccc4c(c2)C[C@H](C)OC4=O)C3)ccc2c1COC2=O [Example 22, (S)-6-(2-(9-((R)-2-Hydroxy-2-(4-methyl-1-oxo-1,3-dihydroisobenzofuran-5-yl)ethyl)-3-oxa-7,9-diazabicyclo[3.3.1]nonan-7-yl)ethyl)-3-methylisochroman-1-one] | 42.7 | 32 |  | 
2 | Cc1c([C@@H](O)CN2CCN(CCc3ccc4c(c3)C[C@@H](C)OC4=O)CC2)ccc2c1COC2=O [Example 28, 4-[(2R)-2-Hydroxy-2-(4-methyl-1-oxo-1,3-dihydro-2-benzofuran-5-yl)ethyl]-1-{2-[(3R)-3-methyl-1-oxo-3,4-dihydro-1H-isochromen-6-yl]ethyl}piperazine] |  |  | 22 | 33
3 | Cc1c([C@H](O)CN2CCN(CCc3ccc4c(c3)C[C@@H](C)OC4=O)CC2)ccc2c1COC2=O [Example 29, (R)-6-(2-(4-((S)-2-Hydroxy-2-(4-methyl-1-oxo-1,3-dihydroisobenzofuran-5-yl)ethyl)piperazin-1-yl)ethyl)-3-methylisochroman-1-one] |  |  | 185 | 145
4 | Cc1c([C@@H](O)CN2CCN(CCc3ccc4c(c3)CCOC4=O)CC2)ccc2c1COC2=O [Example 30, (R)-6-(2-(4-(2-Hydroxy-2-(4-methyl-1-oxo-1,3-dihydroisobenzofuran-5-yl)ethyl)piperazin-1-yl)ethyl)isochroman-1-one] |  |  | 56 | 21
5 | Cc1c([C@H](O)CN2CCN(CCc3ccc4c(c3)CCOC4=O)CC2)ccc2c1COC2=O [Example 31, (S)-6-(2-(4-(2-Hydroxy-2-(4-methyl-1-oxo-1,3-dihydroisobenzofuran-5-yl)ethyl)piperazin-1-yl)ethyl)isochroman-1-one] |  |  | 318 | 564
6 | CCc1c(C(O)CN2CCN(CCc3ccc4c(c3)CCOC4=O)CC2)ccc2c1COC2=O (centres unmarked) [Example 32, 6-(2-(4-(2-(4-Ethyl-1-oxo-1,3-dihydroisobenzofuran-5-yl)-2-hydroxyethyl)piperazin-1-yl)ethyl)isochroman-1-one] |  |  | 71 | 46
7 | O=C1OCCc2cc(CCN3CCN(CC(O)c4ccc5c(c4C(F)(F)F)COC5=O)CC3)ccc21 (centres unmarked) [Example 33, 6-(2-(4-(2-Hydroxy-2-(1-oxo-4-(trifluoromethyl)-1,3-dihydroisobenzofuran-5-yl)ethyl)piperazin-1-yl)ethyl)isochroman-1-one] |  |  | 293 | 38
